Entries after “also recorded” stand apart in the source; their conditions may differ.
Experiments:
[1] = test system: bleomycin-induced pulmonary fibrosis in C57Bl/6 mice; test: Early treatment of pulmonary fibrosis induced by bleomycin in C57Bl/6 mice; assay type: in vivo, mouse; conditions: for lung weight vs vehicle-treated mice / total lung hydroxyproline content vs vehicle-treated mice: Day 21, GM-CT-01 120 mg/kg; for lung weight vs vehicle-treated mice: GR-MD-02 60 mg/kg IV days -1, 2, 6, 9, 13, 16, 20, FIG. 2; for total lung hydroxyproline content vs vehicle-treated mice / Modified Ashcroft Index score, difference vs vehicle, p (unpaired t-test): GR-MD-02 60 mg/kg IV; for lung pathology with trichrome stain (fibrosis): FIG. 7; for Modified Ashcroft Index Score compared to the vehicle group: histologic analysis; for general fibrosis score, difference vs vehicle, p (unpaired t-test) / Inflammation score, difference vs vehicle, p (unpaired t-test) / Modified Ashcroft Index score, difference vs vehicle, p (unpaired t-test): outliers removed; for general fibrosis score, difference vs vehicle, p (unpaired t-test): FIG. 5; for Inflammation score, difference vs vehicle, p (unpaired t-test): FIG. 6; for Modified Ashcroft Index score, difference vs vehicle, p (unpaired t-test): GM-CT-01 120 mg/kg, FIG. 4
Description: Instillation of bleomycin in the trachea induces changes similar to diffuse pulmonary fibrosis and/or fibrosing alveolitis in humans. There is an increase in deposition and net synthesis of collagen in the lung with this model.
This model can be used to evaluate therapy started in the inflammatory phase of the belomycin insult (started<7 day after bleomycin) or after the inflammatory phase and during fibrogenesis (started>7 day after bleomycin). In this example, early therapy was evaluated.
The GM (GM-CT-01) and GA-RG (GR-MD-02) compounds were evaluated as preventative therapy in this mouse model.
Pulmonary fibrosis was induced in animals using intra-tracheal instillation of bleomycin at 2.25 U/kg. Animals were treated using a GM compound (GM-CT-01) or GA-RG compound (GR-MD-02) delivered by intravenous infusion as described in Table 1.
Animals were euthanized on Day 21 and the lungs were weighed. Data shown in FIG. 2 represent group means and SEM. Statistical comparison among all groups was performed using one-way ANOVA with Newman-Keuls multiple comparison test.
After euthanasia, the total lung hydroxyproline content was measured. Data shown in FIG. 3 represent group mean and SEM and expressed as microgram of hydroxyproline per mg of lung tissue. Statistical comparison to the “vehicle+Bleomycin” group was performed using one-way ANOVA with Holm-Sidak's multiple comparison test.

[2] = test system: bleomycin-induced pulmonary fibrosis in C57Bl/6 mice; test: Late treatment of pulmonary fibrosis induced by bleomycin in C57Bl/6 mice; assay type: in vivo, mouse; conditions: for lung pathology with trichrome stain (fibrosis): FIG. 14; for lung pathology with H & E (fibrosis): FIG. 15; for overall antifibrotic treatment effect: GM-CT-01 120 mg/kg, GR-MD-02 60 mg/kg IV days 10, 13, 16, 20; for Modified Ashcroft Index score vs vehicle: change did not reach significance, FIG. 11; for general fibrosis score vs vehicle: differences did not reach statistical significance, FIG. 12; for Inflammation score vs vehicle: differences not statistically significant, FIG. 13; for percent of fibrotic lung (percent of lung affected): not statistically significant
Description: In these experiments, treatment was initiated after the time when the inflammatory reaction is known to have subsided and the process is one of primarily fibrogenesis. Pulmonary fibrosis was induced in animals using bleomycin at 2.25 U/kg at day 0 as described above. Animals were treated using a GM compound intravenously (GM-CT-01) or GA-RG compound intravenously (GR-MD-02) as described in Table 2.
Animals were euthanized on Day 21 and the lungs were weighed. Data shown in FIG. 9 represent group means and standard error of the means.
The total lung hydroxyproline content was measured. Data shown in FIG. 10 represent group mean and expressed as microgram of hydroxyproline per mg of lung tissue.

[3] = comparison in the experience of the laboratory

Substance	lung weight vs vehicle-treated mice [1]	total lung hydroxyproline content vs vehicle-treated mice ([1]; FIG. 3)	lung pathology with trichrome stain (fibrosis) [1]	results compared to pirfenadone [1, 3]	results compared to treatment with anti-TGFbeta [1, 3]	Modified Ashcroft Index Score compared to the vehicle group [1]	general fibrosis score, difference vs vehicle, p (unpaired t-test) [1]	Inflammation score, difference vs vehicle, p (unpaired t-test) [1]	Modified Ashcroft Index score, difference vs vehicle, p (unpaired t-test) [1]	total lung hydroxyproline content (in words) ([2]; Day 21, GM-CT-01 120 mg/kg IV days 10, 13, 16, 20, compared with GR-MD-02, FIG. 10)	lung pathology with trichrome stain (fibrosis) [2]	lung pathology with H & E (fibrosis) [2]	overall antifibrotic treatment effect [2]	Modified Ashcroft Index score vs vehicle [2]	general fibrosis score vs vehicle [2]	Inflammation score vs vehicle [2]	percent of fibrotic lung (percent of lung affected) [2]	total lung hydroxyproline content vs vehicle-treated mice ([1]; FIG. 3, listed as GA-MD-02)	lung weight vs control animals ([2]; Day 21, GR-MD-02 60 mg/kg IV days 10, 13, 16, 20, FIG. 9)	reduction of the increase in hydroxyproline ([2]; Day 21, GR-MD-02 60 mg/kg IV days 10, 13, 16, 20, did not reach significance, FIG. 10)
1,4-β-D-Galactomannan [GM-CT-01]	significantly reduce lung weight; also recorded: significant reduction in mean lung weight; also recorded: markedly reduce lung weight	reduce lung hydroxyproline content; also recorded: significant reduction; also recorded: markedly reduce	effective at reducing fibrosis	superior to the results using pirfenadone	superior to treatment with anti-TGFbeta	significant reduction	0.0979	0.0544	0.0199	less of a decrease	less effect	some reduction in the fibrosis	effective at reducing pulmonary fibrosis; also recorded: more modest positive treatment effect	little change	reduction in the fibrosis score	no change	notably reduced	–	–	–
galactoarabino-rhamnogalacturonate [GR-MD-02]	significantly reduce lung weight; also recorded: significant reduction in mean lung weight; also recorded: markedly reduce lung weight	significant reduction; also recorded: markedly reduce	effective at reducing fibrosis	superior to the results using pirfenadone	–	significant reduction	0.0206	0.0508	0.0112	–	effective at reducing fibrosis	marked decrease in fibrous tissue	effective at reducing pulmonary fibrosis; also recorded: strongest anifibrotic effect; also recorded: more effective than GM-CT-01	reduction in the Aschroft score	reduction in the fibrosis score	reduction in inflammation score	tended to have reduced percent of fibrotic lung	reduce lung hydroxyproline content	decreased lung weight of the GR-MD-02 treated group as compared to control animals, this difference did not reach statistical significance	50%

From patent US9968631B2, “Method for treatment of pulmonary fibrosis” (Galectin Therapeutics, Inc., priority 2013, dated 2018)
